The molecules below were run on Rattus norvegicus (assay: Antiedemic activity against […]-induced paw edema in sc dosed Albino rat).
Assay type: functional

| Structure (SMILES) | ED50 |
| --- | --- |
| COC(=O)[C@@]1(C)CC[C@]2(C(=O)O)CC[C@]3(C)C(=C[C@@H](O)[C@@H]4[C@@]5(C)C[C@H](O)[C@H](O)[C@@](C)(C=O)[C@@H]5CC[C@]43C)[C@H]2C1 | 10 mg/kg |
| C[C@]12CCC(=O)C=C1CC[C@@H]1[C@@H]2C(=O)C[C@@]2(C)[C@H]1CC[C@]2(O)C(=O)CO [CORTISONE] | 30 mg/kg |
| COC(=O)[C@@]1(C)CC[C@]2(C(=O)O)CC[C@]3(C)C(=CC[C@@H]4[C@@]5(C)C[C@H](O)[C@H](O)[C@@](C)(C=O)[C@@H]5CC[C@]43C)[C@H]2C1 | 10 mg/kg |
| C[C@]12C=CC(=O)C=C1CC[C@@H]1[C@@H]2[C@@H](O)C[C@@]2(C)[C@H]1CC[C@]2(O)C(=O)CO [PREDNISOLONE] | 60 mg/kg |
